Read-outs that look alike come from different tables or passages of the source.
What was measured:
albumin = molecular target: T1, albumin (Homo sapiens, UniProt P02768); details: once in the circulation; cited from earlier work
T1 construct: host or cells: endogenous albumin of the bloodstream

[1] = cited from earlier work
Type I diabetes subjects = experiment: Effect of heating or cooling the injection site on blood glucose after basal insulin (LANTUS) injection (FIG. 19); format: in vivo, human; details: for ΔBG_2H, blood glucose excursion change from control / ΔBG_3H, blood glucose excursion change from control / ΔBG_4H, blood glucose excursion change from control: fasting
Text: FIG. 19 is a graph showing results of a study of the effect of applying a treatment (cooling or heating) for regulating the absorption of a drug (insulin) on an analyte level (insulin and/or blood glucose level) over time measured in minutes.
The experiment tests the effect of treatment (e.g. cooling and heating) at the injection site on insulin and glucose blood levels during nine hours following long acting, basal insulin (LANTUS) injection. The tested treatments included heating the skin over the injection site to 40° C. and cooling the skin over the injection site to 20° C. Each subject underwent three procedures during three different days including control, heating and cooling in random order, thus each subject served as his/her own control.
Type I diabetes subjects under fasting conditions injected their usual basal insulin dose which is intended to keep their blood glucose level stable. Two hours after injection a stabilization period commenced in which a subject's blood glucose levels was adjusted to a target blood glucose level using IV insulin or IV glucose administration. The starting glucose level was 150 mg/dl±20 mg/dl. […] In the two testing days the heating or cooling elements were attached to the injection site and heating or cooling was started for a period of four hours and no intervention (besides the treatment, i.e. cooling or heating) was performed during this period. The procedure continued for another two hours without intervention. On the control day no intervention or treatment was applied. During the whole procedure blood samples were collected for blood glucose and insulin concentration measurements every 20 minutes. Safety limits of the study were 75 mg/dl as the low limit, and 250 mg/dl as the high limit. If the subject's blood glucose level was below 75 mg/dl, then a 10% glucose solution was given intravenously to increase the subject's blood glucose level. If the subject's blood glucose level was above 250 mg/dl then IV insulin was given to reduce blood glucose level.

diabetes subjects = experiment: Effect of cooling the injection site on blood glucose after basal insulin (LANTUS) injection (FIG. 20); format: in vivo, human
Experimental: FIG. 20 is a graph showing results of a study of the effect of applying cooling for regulating the absorption of a drug (insulin) on an analyte level (insulin and/or blood glucose level) over time measured in minutes.
The diabetes subjects under fasting conditions injected their usual basal insulin dose (LANTUS) which is intended to keep their blood glucose level stable. […] Cooling commenced at 2 hours and was applied for 3 hours successfully raising he blood glucose level back to 142 mg/dl.

T1 sequence (P02768 25-609): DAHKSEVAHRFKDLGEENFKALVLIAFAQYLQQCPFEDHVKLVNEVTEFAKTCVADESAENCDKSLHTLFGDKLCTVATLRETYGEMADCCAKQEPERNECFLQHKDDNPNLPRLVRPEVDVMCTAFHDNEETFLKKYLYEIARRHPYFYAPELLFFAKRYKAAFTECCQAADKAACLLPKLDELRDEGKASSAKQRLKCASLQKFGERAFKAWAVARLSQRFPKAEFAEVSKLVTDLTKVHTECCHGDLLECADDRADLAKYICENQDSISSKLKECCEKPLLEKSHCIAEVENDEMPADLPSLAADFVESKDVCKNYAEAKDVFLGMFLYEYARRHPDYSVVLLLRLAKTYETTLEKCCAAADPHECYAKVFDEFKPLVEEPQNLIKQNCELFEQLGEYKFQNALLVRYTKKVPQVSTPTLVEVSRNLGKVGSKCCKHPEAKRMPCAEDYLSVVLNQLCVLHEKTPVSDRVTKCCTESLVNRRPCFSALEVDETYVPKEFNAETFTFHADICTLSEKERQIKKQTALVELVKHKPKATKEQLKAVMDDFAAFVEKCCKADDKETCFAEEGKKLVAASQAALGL

Substance: insulin detemir
- albumin bound (albumin): 98%

Substance: insulin glargine [LANTUS]
- solubility ([1]; neutral pH (pH 7.4)): forms precipitates
- solubility ([1]; pH 4): soluble
- increase in blood glucose levels (Type I diabetes subjects; applying cooling to the injection site (text b295)): 25 mg/dL
- average decrease in blood glucose compared to no treatment at all (Type I diabetes subjects; applying heat to the injection site (text b295)): 40 mg/dL
- ΔBG_2H, blood glucose excursion change from control (Type I diabetes subjects; cooling skin over injection site to 20° C., after 2 hours): +30 mg/dl
- ΔBG_3H, blood glucose excursion change from control (Type I diabetes subjects; cooling skin over injection site to 20° C., after 3 hours): +42 mg/dl
- ΔBG_4H, blood glucose excursion change from control (Type I diabetes subjects; cooling skin over injection site to 20° C., after 4 hours): +50 mg/dl
- blood glucose levels over time (FIG. 19) (Type I diabetes subjects; cooling the injection site): increased
- increase in blood glucose compared to no intervention (Type I diabetes subjects; cooling the injection site, after 2 hours): about 42 mg/dl
- increase in blood glucose compared to no intervention (Type I diabetes subjects; cooling the injection site, after 3 hours): ~59 mg/dL
- increase in blood glucose compared to no intervention (Type I diabetes subjects; cooling the injection site, after 4 hours): ~65 mg/dL
- ΔBG_2H, blood glucose excursion change from control (Type I diabetes subjects; heating skin over injection site to 40° C., after 2 hours): -29 mg/dL
- ΔBG_3H, blood glucose excursion change from control (Type I diabetes subjects; heating skin over injection site to 40° C., after 3 hours): -32 mg/dL
- ΔBG_4H, blood glucose excursion change from control (Type I diabetes subjects; heating skin over injection site to 40° C., after 4 hours): -32 mg/dL
- blood glucose levels over time (FIG. 19) (Type I diabetes subjects; heating the injection site): decreased
- average decrease in blood glucose compared to no intervention (Type I diabetes subjects; heating the injection site, after 2 hours): 15 mg/dL
- average decrease in blood glucose compared to no intervention (Type I diabetes subjects; heating the injection site, after 3 hours): 21 mg/dL
- average decrease in blood glucose compared to no intervention (Type I diabetes subjects; heating the injection site, after 4 hours): 26 mg/dL
- blood glucose levels over time (FIG. 19) (Type I diabetes subjects; no intervention applied to the injection site): stable around the base line
- blood glucose level (diabetes subjects; after cooling applied for 3 hours, commenced at 2 hours): 142 mg/dL
- initial blood glucose level (diabetes subjects; at injection, fasting): 143 mg/dL
- blood glucose level (diabetes subjects; within 2 hours after injection, before cooling): 94 mg/dL

— US20200038600A1, “DEVICE AND METHOD FOR DRUG DELIVERY” (Insuline Medical Ltd., priority 2016, published 2020)
